Structures are written as SMILES.

This experiment addresses T1, Androgen Receptor (Homo sapiens, UniProt P10275+P40337, T878A).
T1 construct: Compounds have been evaluated in this assay in LNCaP and/or VCaP cells utilizing similar protocols; endogenous in cells; host or cells: LNCaP cells
Put plainly: Androgen Receptor ELISA assay (PathScan AR ELISA) in LNCaP cells: AR degradation, Dmax and DC50. The class given is cell-based. The following applies: for Dmax: highest percentage of Androgen Receptor degradation; for DC50: concentration that caused 50% Androgen Receptor degradation. For orientation: In an ELISA, binding on a coated surface is turned into a signal by an enzyme label.

T1 sequence (P10275 whole entry T878A): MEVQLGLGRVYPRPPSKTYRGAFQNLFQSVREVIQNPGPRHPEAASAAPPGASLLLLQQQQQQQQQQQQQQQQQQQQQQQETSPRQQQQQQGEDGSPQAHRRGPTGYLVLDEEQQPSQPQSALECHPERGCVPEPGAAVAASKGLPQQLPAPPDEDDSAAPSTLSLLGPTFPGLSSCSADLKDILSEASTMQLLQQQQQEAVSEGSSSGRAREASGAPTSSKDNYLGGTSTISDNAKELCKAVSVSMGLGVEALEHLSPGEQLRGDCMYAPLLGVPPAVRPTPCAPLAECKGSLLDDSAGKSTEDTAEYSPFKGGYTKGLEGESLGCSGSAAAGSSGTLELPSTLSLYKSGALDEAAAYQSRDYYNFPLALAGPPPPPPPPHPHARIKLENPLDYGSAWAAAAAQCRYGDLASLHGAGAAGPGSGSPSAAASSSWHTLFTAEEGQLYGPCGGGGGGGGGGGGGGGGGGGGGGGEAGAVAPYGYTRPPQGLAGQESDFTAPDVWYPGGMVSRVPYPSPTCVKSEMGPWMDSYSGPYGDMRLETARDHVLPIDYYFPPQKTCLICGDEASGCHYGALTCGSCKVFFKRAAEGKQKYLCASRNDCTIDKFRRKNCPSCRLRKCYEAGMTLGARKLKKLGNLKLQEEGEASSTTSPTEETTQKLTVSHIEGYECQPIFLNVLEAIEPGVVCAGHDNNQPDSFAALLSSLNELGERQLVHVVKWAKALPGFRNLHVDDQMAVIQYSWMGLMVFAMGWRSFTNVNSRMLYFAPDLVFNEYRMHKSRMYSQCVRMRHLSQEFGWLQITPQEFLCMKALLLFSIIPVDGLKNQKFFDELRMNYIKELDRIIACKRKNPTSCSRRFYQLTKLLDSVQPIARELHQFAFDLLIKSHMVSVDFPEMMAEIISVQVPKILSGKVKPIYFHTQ
T1 sequence (P40337 whole entry): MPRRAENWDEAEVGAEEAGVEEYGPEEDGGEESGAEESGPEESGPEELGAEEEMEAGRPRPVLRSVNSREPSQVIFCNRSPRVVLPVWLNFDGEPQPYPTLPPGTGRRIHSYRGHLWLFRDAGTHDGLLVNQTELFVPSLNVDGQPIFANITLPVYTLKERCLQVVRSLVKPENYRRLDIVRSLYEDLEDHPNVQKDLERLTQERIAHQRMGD
T1 sequence (Q15369 whole entry partner): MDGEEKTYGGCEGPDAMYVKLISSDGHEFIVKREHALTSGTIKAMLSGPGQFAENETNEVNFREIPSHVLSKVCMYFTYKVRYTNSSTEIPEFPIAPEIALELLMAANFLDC
T1 sequence (Q15370 whole entry partner): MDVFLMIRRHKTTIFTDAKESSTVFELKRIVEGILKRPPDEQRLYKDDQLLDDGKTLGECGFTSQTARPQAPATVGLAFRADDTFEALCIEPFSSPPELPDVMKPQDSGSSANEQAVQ

Molecule `Cc1ncsc1-c1ccc(CNC(=O)[C@@H]2C[C@@H](O)CN2C(=O)[C@H](C(C)C)N2Cc3ccccc3C2=O)c(OCCOCCOCCCCCOCCOCCOc2ccc(N3C(=S)N(c4ccc(C#N)c(C(F)(F)F)c4)C(=O)C3(C)C)cc2)c1` [Example 218] had a maximal degradation (Dmax) of 26 to 50%.

Turning to `Cc1ncsc1-c1ccc(CNC(=O)[C@@H]2C[C@@H](O)CN2C(=O)[C@H](C(C)C)N2Cc3ccccc3C2=O)c(OCCOCCOCCCCOCCCCOCCOCCOc2ccc(N3C(=S)N(c4ccc(C#N)c(C(F)(F)F)c4)C(=O)C3(C)C)cc2)c1` [Example 219], the greatest degradation seen (Dmax) was > 71%. In the case of `Cc1ncsc1-c1ccc(CNC(=O)[C@@H]2C[C@@H](O)CN2C(=O)[C@H](C(C)C)N2Cc3ccccc3C2=O)c(OCCOCCOCCCCCOCCCCCOCCOCCOc2ccc(N3C(=S)N(c4ccc(C#N)c(C(F)(F)F)c4)C(=O)C3(C)C)cc2)c1` [Example 220], the greatest degradation seen (Dmax) was in the range of 51 to 70%.

The molecule `Cc1ncsc1-c1ccc(CNC(=O)[C@@H]2C[C@@H](O)CN2C(=O)[C@@H](NC(=O)COCCOCCOCCCCCOCCOCCOc2ccc(N3C(=S)N(c4ccc(C#N)c(C(F)(F)F)c4)C(=O)C3(C)C)cc2)C(C)(C)C)cc1` [Example 222] gave a Dmax of 26 to 50%. Regarding `Cc1ncsc1-c1ccc(CNC(=O)[C@@H]2C[C@@H](O)CN2C(=O)[C@@H](NC(=O)COCCOCCCCOCCCCOCCOCCOc2ccc(N3C(=S)N(c4ccc(C#N)c(C(F)(F)F)c4)C(=O)C3(C)C)cc2)C(C)(C)C)cc1` [Example 223], the Dmax fell in the range of 26 to 50%. For the molecule `Cc1ncsc1-c1ccc(CNC(=O)[C@@H]2C[C@@H](O)CN2C(=O)[C@@H](NC(=O)COCCOCCCCCOCCCCCOCCOCCOc2ccc(N3C(=S)N(c4ccc(C#N)c(C(F)(F)F)c4)C(=O)C3(C)C)cc2)C(C)(C)C)cc1` [Example 224], the greatest degradation seen (Dmax) was in the range of 26 to 50%. With `Cc1ncsc1-c1ccc(CNC(=O)[C@@H]2C[C@@H](O)CN2C(=O)[C@@H](NC(=O)COCCOCCOCCCCCOc2ccc(N3C(=S)N(c4ccc(C#N)c(C(F)(F)F)c4)C(=O)C3(C)C)cc2)C(C)(C)C)cc1` [Example 225], the half-maximal degradation concentration (DC50) was < 50 nM and the greatest degradation seen (Dmax) is 51 to 70%. On to `Cc1ncsc1-c1ccc(CNC(=O)[C@@H]2C[C@@H](O)CN2C(=O)[C@@H](NC(=O)CCCCCOCCCCOCCCCOc2ccc(N3C(=S)N(c4ccc(C#N)c(C(F)(F)F)c4)C(=O)C3(C)C)cc2)C(C)(C)C)cc1` [Example 227], for which the 50% degradation concentration (DC50) was < 50 nM and the Dmax is 26 to 50%. Taken in the same sequence, the figures for `Cc1ncsc1-c1ccc(CNC(=O)[C@@H]2C[C@@H](O)CN2C(=O)[C@@H](NC(=O)CCOCCOCCCCCOc2ccc(N3C(=S)N(c4ccc(C#N)c(C(F)(F)F)c4)C(=O)C3(C)C)cc2)C(C)(C)C)cc1` [Example 228] were 51 to 500 nM and 51 to 70%.

In turn, `Cc1ncsc1-c1ccc(CNC(=O)[C@@H]2C[C@H](O)CN2C(=O)[C@H](C(C)C)N2Cc3ccccc3C2=O)c(OCCOCCOCCOc2ccc(N3C(=S)N(c4ccc(C#N)c(C(F)(F)F)c4)C(=O)C3(C)C)cc2)c1` [Example 229] displayed a DC50 of 51 to 500 nM and a Dmax of 51 to 70%. `Cc1ncsc1-c1ccc(CNC(=O)[C@@H]2C[C@@H](O)CN2C(=O)[C@@H](NC(=O)CCNC(=O)CCCc2ccc(N3C(=S)N(c4ccc(C#N)c(C(F)(F)F)c4)C(=O)C3(C)C)cc2)C(C)(C)C)cc1` [Example 231]: the half-maximal degradation concentration (DC50) is > 501 nM and the greatest degradation seen (Dmax) lay in the range of 51 to 70%. For `Cc1ncsc1-c1ccc(CNC(=O)[C@@H]2C[C@@H](O)CN2C(=O)[C@@H](NC(=O)CCOCCNC(=O)CCCc2ccc(N3C(=S)N(c4ccc(C#N)c(C(F)(F)F)c4)C(=O)C3(C)C)cc2)C(C)(C)C)cc1` [Example 232], the DC50 is > 501 nM and the Dmax lay within 26 to 50%. Taken in the same sequence, the figures for `Cc1ncsc1-c1ccc(CNC(=O)[C@@H]2C[C@@H](O)CN2C(=O)[C@@H](NC(=O)CCOCCOc2ccc(N3C(=S)N(c4ccc(C#N)c(C(F)(F)F)c4)C(=O)C3(C)C)cc2)C(C)(C)C)cc1` [Example 233] were > 501 nM and 51 to 70%.

As to `Cc1ncsc1-c1ccc(CNC(=O)C2C[C@@H](OC(C)(C)C)CN2C(=O)[C@H](C(C)C)N2Cc3ccccc3C2=O)c(OCCOCCOCCOc2ccc(N3C(=O)N(c4ccc(C#N)c(C(F)(F)F)c4)C(=O)C3(C)C)cc2)c1` (stereo partly drawn) [Example 234], the DC50 lay within 51 to 500 nM and the greatest degradation seen (Dmax) is 26 to 50%.

Molecule `Cc1ncsc1-c1ccc(CNC(=O)C2C[C@@H](O)CN2C(=O)[C@H](C(C)C)N2Cc3ccccc3C2=O)c(OCCOCCOCCOc2ccc(N3C(=O)N(c4ccc(C#N)c(C(F)(F)F)c4)C(=O)C3(C)C)cc2)c1` (stereo partly drawn) [Example 235] registered a half-maximal degradation concentration (DC50) of 51 to 500 nM and a Dmax of 51 to 70%.

As for `Cc1ncsc1-c1ccc(CNC(=O)[C@@H]2C[C@@H](O)CN2C(=O)[C@@H](NC(=O)COCCOc2ccc(N3C(=S)N(c4ccc(C#N)c(C(F)(F)F)c4)C(=O)C3(C)C)cc2)C(C)(C)C)cc1` [Example 236], the DC50 is > 501 nM and the Dmax is 26 to 50%. Regarding `Cc1ncsc1-c1ccc(CNC(=O)[C@@H]2C[C@@H](O)CN2C(=O)[C@@H](NC(=O)CCCOc2ccc(N3C(=S)N(c4ccc(C#N)c(C(F)(F)F)c4)C(=O)C3(C)C)cc2)C(C)(C)C)cc1` [Example 237], the 50% degradation concentration (DC50) is > 501 nM and the maximal degradation (Dmax) was in the range of 26 to 50%. In the case of `Cc1ncsc1-c1ccc(CNC(=O)[C@@H]2C[C@@H](O)CN2C(=O)[C@@H](NC(=O)OCCOCCCOCCOc2ccc(N3C(=S)N(c4ccc(C#N)c(C(F)(F)F)c4)C(=O)C3(C)C)cc2)C(C)(C)C)cc1` [Example 239], the 50% degradation concentration (DC50) is < 50 nM and the maximal degradation (Dmax) lay within 51 to 70%. Take `Cc1ncsc1-c1ccc(CNC(=O)[C@@H]2C[C@@H](O)CN2C(=O)[C@@H](NC(=O)COCCOCCCOCCOc2ccc(N3C(=S)N(c4ccc(C#N)c(C(F)(F)F)c4)C(=O)C3(C)C)cc2)C(C)(C)C)cc1` [Example 240]: the half-maximal degradation concentration (DC50) was < 50 nM and the Dmax was in the range of 51 to 70%. In the case of `Cc1ncsc1-c1ccc(CNC(=O)[C@@H]2C[C@@H](O)CN2C(=O)[C@H](C(C)C)N2Cc3ccccc3C2=O)c(OCCCOCCOc2ccc(N3C(=S)N(c4ccc(C#N)c(C(F)(F)F)c4)C(=O)C3(C)C)cc2)c1` [Example 241], the DC50 is < 50 nM and the Dmax lay in the range of 26 to 50%. Regarding `Cc1ncsc1-c1ccc(CNC(=O)[C@@H]2C[C@@H](O)CN2C(=O)[C@@H](NC(=O)COCCOCCCOc2ccc(N3C(=S)N(c4ccc(C#N)c(C(F)(F)F)c4)C(=O)C3(C)C)cc2)C(C)(C)C)cc1` [Example 243], the half-maximal degradation concentration (DC50) fell in the range of 51 to 500 nM and the maximal degradation (Dmax) was 51 to 70%. `Cc1ncsc1-c1ccc(CNC(=O)[C@@H]2C[C@@H](O)CN2C(=O)[C@@H](NC(=O)CCOCCCOc2ccc(N3C(=S)N(c4ccc(C#N)c(C(F)(F)F)c4)C(=O)C3(C)C)cc2)C(C)(C)C)cc1` [Example 244]: the DC50 lay within 51 to 500 nM and the Dmax was < 25%. Taken in the same sequence, the figures for `Cc1ncsc1-c1ccc(CNC(=O)[C@@H]2C[C@@H](O)CN2C(=O)[C@@H](NC(=O)CCCOCCOCCNC(=O)c2ccc(N3C(=S)N(c4ccc(C#N)c(C(F)(F)F)c4)C(=O)C3(C)C)cc2F)C(C)(C)C)cc1` [Example 245] were > 501 nM and 26 to 50%. Take `Cc1ncsc1-c1ccc(CNC(=O)[C@@H]2C[C@@H](O)CN2C(=O)[C@@H](NC(=O)CCCCOCCCCCOc2ccc(N3C(=S)N(c4ccc(C#N)c(C(F)(F)F)c4)C(=O)C3(C)C)cc2)C(C)(C)C)cc1` [Example 246]: the DC50 is 51 to 500 nM and the maximal degradation (Dmax) is > 71%. `Cc1ncsc1-c1ccc(CNC(=O)[C@@H]2C[C@@H](O)CN2C(=O)[C@H](C(C)C)N2Cc3cc(CCCOCCOc4ccc(N5C(=S)N(c6ccc(C#N)c(C(F)(F)F)c6)C(=O)C5(C)C)cc4)ccc3C2=O)cc1` [Example 248]: the DC50 lay in the range of 51 to 500 nM and the greatest degradation seen (Dmax) was in the range of 26 to 50%. With `Cc1ncsc1-c1ccc(CNC(=O)[C@@H]2C[C@@H](O)CN2C(=O)[C@@H](NC(=O)CCCCCOCCCCCOc2ccc(N3C(=S)N(c4ccc(C#N)c(C(F)(F)F)c4)C(=O)C3(C)C)cc2)C(C)(C)C)cc1` [Example 249], the DC50 lay in the range of 51 to 500 nM and the Dmax was > 71%. Consider `Cc1ncsc1-c1ccc(CNC(=O)[C@@H]2C[C@@H](O)CN2C(=O)[C@H](C(C)C)N2Cc3ccccc3C2=O)c(OCCCOCCCOc2ccc(N3C(=S)N(c4ccc(C#N)c(C(F)(F)F)c4)C(=O)C3(C)C)cc2)c1` [Example 250], for which the 50% degradation concentration (DC50) fell in the range of 51 to 500 nM and the Dmax was > 71%.

Regarding `Cc1ncsc1-c1ccc(CNC(=O)[C@@H]2C[C@@H](O)CN2C(=O)[C@H](C(C)C)N2Cc3cc(CCCCCOc4ccc(N5C(=S)N(c6ccc(C#N)c(C(F)(F)F)c6)C(=O)C5(C)C)cc4)ccc3C2=O)cc1` [Example 251], the DC50 is 51 to 500 nM and the Dmax is 51 to 70%.

For the molecule `Cc1ncsc1-c1ccc(CNC(=O)[C@@H]2C[C@@H](O)CN2C(=O)[C@H](C(C)C)N2Cc3cc(CCCCOCCOc4ccc(N5C(=S)N(c6ccc(C#N)c(C(F)(F)F)c6)C(=O)C5(C)C)cc4)ccc3C2=O)cc1` [Example 252], the 50% degradation concentration (DC50) fell in the range of 51 to 500 nM and the Dmax lay within 51 to 70%. With `Cc1ncsc1-c1ccc(CNC(=O)[C@@H]2C[C@@H](O)CN2C(=O)[C@@H](NC(=O)COCCCOCCOCCOc2ccc(N3C(=S)N(c4ccc(C#N)c(C(F)(F)F)c4)C(=O)C3(C)C)cc2)C(C)(C)C)cc1` [Example 253], the DC50 lay within 51 to 500 nM and the Dmax was 51 to 70%.

The molecule `Cc1ncsc1-c1ccc(CNC(=O)[C@@H]2C[C@@H](O)CN2C(=O)[C@H](C(C)C)N2Cc3ccccc3C2=O)c(OCCCOc2ccc(N3C(=S)N(c4ccc(C#N)c(C(F)(F)F)c4)C(=O)C3(C)C)cc2)c1` [Example 254] displayed a 50% degradation concentration (DC50) of 51 to 500 nM and a Dmax of 51 to 70%. Take `Cc1ncsc1-c1ccc(CNC(=O)[C@@H]2C[C@@H](O)CN2C(=O)[C@@H](NC(=O)COCCCCOCCCCCOc2ccc(N3C(=S)N(c4ccc(C#N)c(C(F)(F)F)c4)C(=O)C3(C)C)cc2)C(C)(C)C)cc1` [Example 255]: the half-maximal degradation concentration (DC50) lay in the range of 51 to 500 nM and the Dmax was > 71%. Taken in the same sequence, the figures for `Cc1ncsc1-c1ccc(CNC(=O)[C@@H]2C[C@@H](O)CN2C(=O)[C@H](C(C)C)N2Cc3ccccc3C2=O)c(OCCCCOc2ccc(N3C(=S)N(c4ccc(C#N)c(C(F)(F)F)c4)C(=O)C3(C)C)cc2)c1` [Example 256] were 51 to 500 nM and 51 to 70%.

What is called Dmax is the greatest extent of degradation seen. A lower Dmax goes with shallow degradation. As usually defined, the DC50 is the concentration giving 50% degradation.

(Values after patent US11427548B2 (Arvinas Operations, Inc., priority 2015, dated 2022).)
